According to US5985910A, “3- [4- (2- Phenyl-Indole-1-ylmethyl) Phenyl]- Acrylamides as estrogenic agents” (priority 1997, dated 1999):

What was measured:
bone = settings: background; cited from earlier work
Ishikawa cells = test: Ishikawa Cell Alkaline Phosphatase Assay; assay type: cell-based, human; settings: for % Activation (Compound ± 1 nM 17β-estradiol) (alkaline phosphatase): 10^-6 M compound + 1 nM 17β-estradiol, 48 h (antiestrogen test); for % Activation (alkaline phosphatase): compound alone, 48 h, percent of response related to 1 nM 17β-estradiol
Procedure: Ishikawa Cell Alkaline Phosphatase Assay
(§1) Cell Maintenance and Treatment
Ishikawa cells were maintained in DMEM/F12 (50%:50%) containing phenol red+10% fetal bovine serum and the medium was supplemented with 2 mM Glutamax, 1% Pen/Strap and 1 mM sodium pyruvate. Five days prior to the beginning of each experiment (treatment of cells) the medium was changed to phenol red-free DMEM/F12+10% dextran coated charcoal stripped serum. On the day before treatment, cells were harvested using 0.5% trypsin/EDTA and plated at a density of 5×10^4 cells/well in 96-well tissue culture plates. […] Cells were treated for 48 h prior to assay. […] Sample population for at each dose was n=8.
Alkaline Phosphatase Assay
At the end of 48 h the media is aspirated and cells are washed three times with phosphate buffered saline (PBS). 50 μL of lysis buffer (0.1 M Tris-HCl, pH 9.8, 0.2% Triton X-100) is added to each well. Plates are placed at -80° C. for a minimum of 15 minutes. Plates are thawed at 37° C. followed by the addition of 150 μL of 0.1 M Tris-HCl, pH 9.8, containing 4 mM para-nitrophenylphosphate (pNPP) to each well (final concentration, 3 mM pNPP).
Absorbance and slope calculations were made using the KineticCalc Application program (Bio-Tek Instruments, Inc., Winooski, Vt.). Results are expressed as the mean +/-S.D. of the rate of enzyme reaction (slope) averaged over the linear portion of the kinetic reaction curve (optical density readings every 5 minutes for 30 minutes absorbance reading).
Various compounds were assayed for estrogenic activity by the alkaline phosphatase method and corresponding ED50 values (95% C.I.) were calculated. The four listed in the following were used as reference standards:
A description of such methods is provided by Holinka, C. F., Hata, H., Kuramoto, H. and Gurpide, E. (1986) Effects of steroid hormones and antisteroids on alkaline phosphatase activity in human endometrial cancer cells (Ishikawa Line). Cancer Research, 46:2771-2774, and by Littlefield, B. A., Gurpide, E., Markiewicz, L., McKinley, B. and by Hochberg, R. B. (1990) A simple and sensitive microtiter plate estrogen bioassay based on stimulation alkaline phosphatase in Ishikawa cells; Estrogen action of D5 adrenal steroids. Endocrinology, 6:2757-2762.

uteri = test: Rat Uterotrophic/Antiuterotrophic Bioassay (results headed 3-Day Ovariectomized Rat Model); assay type: in vivo, rat (Sprague-Dawley)
Procedure: Rat Uterotrophic/Antiuterotrophic Bioassay
Immature Sprague-Dawley rats (female, 18 days old) were tested in groups of six. […] On day 4 the animals were sacrificed by CO2 asphyxiation and their uteri were removed and stripped of excess lipid, any fluid removed and the wet weight determined. A small section of one horn was submitted for histology and the remainder used to isolate total RNA in order to evaluate complement component 3 gene expression.

uterus = settings: background; cited from earlier work
ovariectomized rat = settings: background, cited from earlier work
estrogen receptor [1] = target: T1, estrogen receptor (Homo sapiens, UniProt P03372); test: 2X VIT ERE Transfection (luciferase) Assay in CHO cells; assay type: cell-based; design: expressed in transfected cells; host or cells: Chinese Hamster Ovary (CHO) cells, stably transfected
T1 sequence (P03372 1-595): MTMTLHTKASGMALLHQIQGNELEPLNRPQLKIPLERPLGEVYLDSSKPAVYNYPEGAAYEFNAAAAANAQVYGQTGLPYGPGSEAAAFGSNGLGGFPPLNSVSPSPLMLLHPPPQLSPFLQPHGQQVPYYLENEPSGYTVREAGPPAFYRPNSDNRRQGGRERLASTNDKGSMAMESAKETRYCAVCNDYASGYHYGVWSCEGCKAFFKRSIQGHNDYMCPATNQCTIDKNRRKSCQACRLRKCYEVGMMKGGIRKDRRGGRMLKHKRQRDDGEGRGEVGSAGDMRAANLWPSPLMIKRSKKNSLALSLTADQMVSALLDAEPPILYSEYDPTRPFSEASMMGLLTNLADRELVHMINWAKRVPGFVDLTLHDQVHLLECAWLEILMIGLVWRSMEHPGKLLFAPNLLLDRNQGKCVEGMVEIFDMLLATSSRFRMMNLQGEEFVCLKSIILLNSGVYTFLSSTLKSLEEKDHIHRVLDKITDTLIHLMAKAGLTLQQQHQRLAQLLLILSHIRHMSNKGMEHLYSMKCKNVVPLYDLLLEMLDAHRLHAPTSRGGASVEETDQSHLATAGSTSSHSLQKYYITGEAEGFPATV
Procedure: 2X VIT ERE Transfection Assay
as §1
Chinese Hamster Ovary cells (CHO) which had been stably transfected with the human estrogen receptor were maintained in DMEM+10% fetal bovine serum (FBS). 48 h prior to treatment the growth medium was replaced with DMEM lacking phenol red +10% dextran coated charcoal stripped FBS (treatment medium). Cells were plated at a density of 5000 cells/well in 96-well plates containing 200 μL of medium/well.
Calcium Phoshate Transfection
Reporter DNA (Promega plasmid pGL2 containing two tandem copies of the vitellogenin ERE in front of the minimal thymidine kinase promoter driving the luciferase gene) was combined with the B-galactosidase expression plasmid pCH110 (Pharmacia) and carrier DNA (pTZ18U) in the following ratio:
20 uL of this mixture was added to each well of cells and remained on the cells for 16 h. […] Each treatment condition was performed on 8 wells (n=8) which were incubated for 24 h prior to the luciferase assay.
After removing the PBS, 25 uL of Promega lysis buffer was added to each well and allowed to stand at room temperature for 15 min, followed by 15 min at -80° C. and 15 min at 37° C. 20 uL of lysate was transferred to an opaque 96 well plate for luciferase activity evaluation and the remaining lysate (5 uL) was used for the B-galactosidase activity evaluation (normalize transfection). The luciferan substrate (Promega) was added in 100 uL aliquots to each well automatically by the luminometer and the light produced (relative light units) was read 10 seconds after addition.
To the remaining 5 uL of lysate 45 uL of PBS was added. Then 50 uL of Promega B-galactosidase 2× assay buffer was added, mixed well and incubated at 37° C. for 1 hour. A plate containing a standard curve (0.1 to 1.5 milliunits in triplicate) was set up for each experimental run. The plates were analyzed on a Molecular Devices spectrophotometric plate reader at 410 nm. The optical densities for the unknown were converted to milliunits of activity by mathematical extrapolation from the standard curve.
The luciferase data was generated as relative light units (RLUs) accumulated during a 10 second measurement and automatically transferred to a JMP (SAS Inc) file where background RLUs were subtracted. The B-galactosidase values were automatically imported into the file and these values were divided into the RLUs to normalize the data. The mean and standard deviations were determined from a n=8 for each treatment. […] These techniques are described by Tzukerman, M. T., Esty, A., Santiso-Mere, D., Danielian, P., Parker, M. G., Stein, R. B., Pike, J. W. and McDonnel, D. P. (1994). Human estrogen receptor transactivational capacity was determined by both cellular and promoter context and mediated by two functionally distinct intramolecular regions (see Molecular Endocrinology, 8:21-30).

estrogen receptor [2] = target: T1, estrogen receptor; test: In Vitro Estrogen Receptor Binding Assay ([3H]-17β-estradiol competition, cytosol of CHO cells overexpressing the estrogen receptor); design: made in house; host or cells: CHO cells overexpressing the receptor; 100,000 g cytosol
Procedure: In Vitro Estrogen Receptor Bonding Assay
CHO cells overexpressing the estrogen receptor were grown in 150 mm^2 dishes in DMEM+10% dextran coated charcoal, stripped fetal bovine serum. The plates were washed twice with PBS and once with 10 mM Tris-HCl, pH 7.4, 1 mM EDTA. Cells were harvested by scraping the surface and then the cell suspension was placed on ice. Cells were disrupted with a hand-held motorized tissue grinder using two, 10-second bursts. […] The cytosol was then frozen and stored at -80° C. Protein concentration of the cytosol was estimated using the BCA assay with reference standard protein.
100 uG/100 uL of the receptor preparation was aliquoted per well. […] The plate was incubated at room temperature for 2.5 h. […] 200 uL of the supernatant solution was then removed for scintillation counting. Samples were counted to 2% or 10 minutes, whichever occurs first. […] Also, wells containing radioactivity but no cytosol were processed with charcoal to estimate unremovable DPM of [^3 H] […].
Counts per minute (CPM) of radioactivity were automatically converted to disintegrated per minute (DPM) by the Beckman LS 7500 Scintillation Counter using a set of quenched standards to generate a H# for each sample.
((DPM sample-DPM not removed by charcoal)/(DPM estradiol-DPM not removed by charcoal))×100%=% of estradiol binding
For the generation of IC50 curves, % binding is plotted vs compound. […] For a description of these methods, see Hulme, E. C., ed. […] Receptor-Ligand Interactions: A Practical Approach. IRL Press, New York (see especially chapter 8).

## CC/C(=C(\c1ccccc1)c1ccc(OCCN(C)C)cc1)c1ccccc1 [tamoxifen]
bone
  effect on the bone in humans (in words): estrogen agonist like effect on the bone
Ishikawa cells
  % Activation (Compound ± 1 nM 17β-estradiol) (alkaline phosphatase): 45%
  % Activation (alkaline phosphatase): 0%
uteri; 10 μG compound, controls: tamoxifen/raloxifene 42.7, Example 7 20.2, Example 12 31.4, Example 11 24.5, Examples 14/15 29.1 mg
  uterine wet weight, 10 μG: 69.6 mg
uteri; 100 μG compound, controls: tamoxifen/raloxifene 42.7, Example 7 20.2, Example 12 31.4, Example 11 24.5, Examples 14/15 29.1 mg
  uterine wet weight, 100 μG: 71.4 mg
uterus
  effect in the uterus (in words): partial agonist in the uterus

## O=C(c1ccc(OCCN2CCCCC2)cc1)c1c(-c2ccc(O)cc2)sc2cc(O)ccc12 [raloxifene]
Ishikawa cells
  % Activation (alkaline phosphatase): 5%
Ovariectomized rat
  ability to spare bone (in words): maintaining the ability to spare bone
Ovariectomized rat; compared with Tamoxifen
  stimulation of uterine growth (in words): stimulate uterine growth in the ovariectomized rat to a lesser extent than Tamoxifen

## CCCCN(CCCC)C(=O)/C=C/c1ccc(Cn2c(-c3ccc(O)cc3)c(C)c3cc(O)ccc32)cc1 [Example 11, (E)-N,N-Dibutyl-3-{4-[5-hydroxy-2-(4-hydroxy-phenyl)-3-methyl-indol-1-ylmethyl]-phenyl}-acrylamide]
Ishikawa cells
  % Activation (Compound ± 1 nM 17β-estradiol) (alkaline phosphatase): 11%
  % Activation (alkaline phosphatase): 6%
uteri; 100 μG compound + 1 μG 17β-estradiol, estradiol alone: Example 11 group 90.8, Examples 14/15 group 95.5 mg
  uterine wet weight, 100 μG plus 1 μG 17β-Estradiol: 81.0 mg
Estrogen receptor [1]; 1 uM compound + 1 nM 17β-estradiol, 24 h (antagonism)
  % Activation with 1 nM 17β-estradiol (luciferase): 12%
Estrogen receptor [1]; CHO, 24 h
  activation at 1 µM: 8%
Estrogen receptor [2]
  Estrogen Receptor Affinity (RBA): 80
